Data: patent US20220323379A1, “P62 LIGAND COMPOUND AND ER-PHAGY-PROMOTING USE THEREOF” (PROTECH, INC., priority 2019, published 2022)
Blank lines part the entries; values can stand above or below the compound they belong to.

Experiments:
p62 = biological target: T1, p62 (Homo sapiens, UniProt Q13501); assay: In vitro p62 oligomerization assay; format: biochemical; conditions: 2 h; for p62 oligomerization: dipeptide 50 mM, FIG. 2B; for oligomerization and aggregation of p62: p62-ZZ ligands 1 mM, p62-myc/his cell lysate, FIG. 5B
T1 construct: PCR amplification of a full-length human p62 cDNA fragment; expressed in transfected cells; unpurified lysate supernatant
Protocol: FIG. 2B illustrates the in vitro p62 oligomerization assay results in HEK293T cells cultured with Arg-Ala or Ala-Arg dipeptide (50 mM, 2 hours),
FIG. 5B illustrates the in vitro p62 oligomerization assay results in HEK293T cells incubated with the p62-ZZ ligands (1 mM, 2 h) illustrated in FIG. 5A,
HEK293 cells were transiently transfected with a plasmid encoding p62-myc/his fusion proteins (Reference Example 2), resuspended in a lysis buffer [50 mM Hepes (pH 7.4), 0.15 M KCl, 0.1% Nonidet P-40), 10% glycerol, and a mixture of protease inhibitors and phosphatase inhibitor (Abcam)] and lysed by 10 cycles of freezing and thawing, followed by centrifugation at 13,000×g for 20 min at 4° C. The protein concentration in the supernatant was determined using a BCA assay (Thermo Fisher Scientific). A total of 1 μg of protein was mixed with 50 mM of the Arg-Ala or Ala-Arg dipeptide (Anygen) or 1000 μM of p62-ZZ ligands in the presence of 100 μM bestatin (Enzo) at room temperature for 2 h. Next, a non-reducing 4×LDS sample buffer was added to each sample, heated at 95° C. for 10 min, and resolved using 4-20% gradient SDS-PAGE (Bio-Rad). Immunoblotting analysis was carried out to monitor the conversion of p62 monomers into oligomers or aggregates using an anti-myc antibody.

HeLa cells [1] = assay: ER expansion visualization by KDEL immunostaining; format: cell-based, human; conditions: tannic acid 30 μM 24 h with YTK1105 2.5 μM 5 h or rapamycin 2 μM 18 h, FIGS. 5H, 5I
Protocol: FIG. 5H illustrates the immunostaining results of KDEL signals in HeLa cells treated with or without tannic acid (30 μM, 24 h) and with YTK1105 (2.5 μM, 5 h) or rapamycin (2 μM, 18 h) (scale bar, 10 μm),
To observe cellular localization of proteins, cells were cultured on cover slips coated with poly-L-lysine (Sigma). The cells were fixed with 4% paraformaldehyde in PBS (pH 7.4) for 15 min at room temperature and washed three times with PBS for 5 min. The cells were permeabilized with 0.5% Triton X-100 in PBS solution for 15 min and washed three times with PBS for 5 min. The cells were blocked with 2% BSA in PBS solution for 1 h at room temperature. After blocking, the cells were incubated overnight at 4° C. with a primary antibody diluted in 2% BSA/PBS solution. […] Confocal images were taken by a laser scanning confocal microscope 510 Meta (Zeiss) and analyzed by Zeiss LSM Image Browser (ver. 4.2.0.121).
Using confocal microscopy of cells analyzed by immunocytochemistry, ER expansion was visualized by considered when KDEL- or calnexin-labelled ER occupied more than 80% of cell area. Furthermore, the ER area was calculated by ImageJ (NIH, Bethesda, v1.52) and the background threshold was manually defined and set for all images. The ER area was calculated and marked from the total cell area as a fraction after borders of each cell were set.

TRIM13 [2] = assay: Immunoblotting of ER protein in tannic acid-treated cells; format: cell-based, human; conditions: HeLa, tannic acid 30 μM 24 h; FIG. 8E
Protocol: FIG. 8E illustrates the immunoblotting results of ER protein in HeLa cells treated with tannic acid (30 μM, 24 h),
Cell pellets were washed with phosphate-buffered saline (PBS) and lysed in an SDS-based sample buffer (277.8 mM Tris-HCl, pH 6.8, 4.4% LDS, 44.4% (v/v) glycerol) with beta-mercaptoethanol. Alternatively, cell pellets or protein supernatants were lysed in a 5× Laemmli sample buffer (SDS-based sample buffer). Using SDS-PAGE, whole cell lysates were separated and transferred onto polyvinylidene difluoride membranes at 100 V for 2 h at 4° C. Subsequently, the membrane was blocked with 4% skim milk in PBS solution for 30 min at room temperature and incubated overnight with primary antibodies (see Reference Example 4), followed by incubation with host-specific HRP-conjugated secondary antibodies (Jackson laboratory) (1:10000 dilution). For signal detection, a mixture of ECL solution (Thermo Fisher Scientific) was applied onto the membrane and captured using X-ray films.

HeLa cells [3] = assay: Immunocytochemistry co-localization analysis of ER markers (calnexin, KDEL) with p62 and LC3; format: cell-based, human; conditions: tannic acid 30 μM 24 h, HCQ 10 μM 24 h
Protocol: FIG. 2C is a fluorescence image illustrating the co-localization analysis results of p62 and calnexin in HeLa cells treated with HCQ (10 μM, 24 h), tannic acid (30 μM, 24 h) or both (scale bar, 10 μm),
FIG. 2E is a fluorescence image illustrating the co-localization analysis results of KDEL and LC3 in HeLa cells treated with HCQ (10 μM, 24 h), tannic acid (30 μM, 24 h) or both (scale bar, 10 μm),
FIG. 5C is a fluorescence image illustrating the co-localization analysis results of calnexin, p62 and LC3-GFP puncta structures in HeLa cells transfected with LC3-GFP and treated with YTK1105 (2.5 μM, 9 h) (scale bar, 10 μm),
FIG. 11E illustrates the co-localization analysis results of p62, KDEL and LC3-GFP in HeLa cells transiently transfected with LC3-GFP and treated with YTK1105 (2.5 μM, 5 h) (scale bar, 10 μm), […]
To observe cellular localization of proteins, cells were cultured on cover slips coated with poly-L-lysine (Sigma). […] Confocal images were taken by a laser scanning confocal microscope 510 Meta (Zeiss) and analyzed by Zeiss LSM Image Browser (ver. 4.2.0.121).
Quantification results are expressed as the mean+/−S.D. value of three independent test results. […] The P-values were determined using ANOVA with two-tailed student's t-test (degree of freedom=n−1) or Prism 6 software (GraphPad). The statistical significance was determined as values of p<0.05 (***p<0.001; **p<0.01; *p<0.05).

TRIM13-p62 complex = biological target: T2, TRIM13-p62 complex (Homo sapiens, UniProt Q13501); assay: Co-IP with autophagy flux analysis using TRIM13 pulldown; format: cell-based; conditions: HEK293T p62-myc + TRIM13-flag, tannic acid 30 μM 24 h, FIG. 4I
T2 construct: PCR amplification of a full-length human p62 cDNA fragment; expressed in transfected cells; host or cells: HEK293T
Protocol: FIG. 4I illustrates the Co-IP assay results in HEK293T cells treated with HCQ (10 μM, 24 h), tannic acid (30 μM, 24 h), or both, and co-transfected (24 h) with p62-myc and TRIM13-flag,
FIG. 5K illustrates the Co-IP assay results in HEK293T cells co-transfected with p62-myc and TRIM13-flag (24 h) or transfected with negative control empty vector (EV) and treated with HCQ (10 μM, 24 h), YOK1104 (2.5 μM, 4 h), or both, and
To test protein interaction, co-immunoprecipitation assays were performed. For exogenous co-IP, HEK293T cells were transfected with recombinant p62, BiP, TRIM13, reticulophagy regulator 1 (FAM134B), reticulon 3 (RTN3) or ATZ (Z variant E342K) using Lipofectamine 2000. The cell pellets were scraped and pelleted by centrifugation, resuspended and lysed in an immunoprecipitation buffer (IP buffer) [50 mM Tris-HCl pH 7.5, 150 mM NaCl, 0.5% Triton X-100, 1 mM EDTA, 1 mM phenylmethylsulfonyl fluoride (PMSF; Roche) and protease inhibitor cocktail (Sigma)] on a rotor at 4° C. for 30 min. Next, the supernatant and remaining pellets were passed through a 26-gauge 1 mL syringe 15 times and centrifuged at 13,000 g at 4° C. and collected for the supernatant, to which normal mouse IgG (Santa Cruz) and Protein A/G-Plus agarose beads (Santa Cruz) were added to preclear the lysate on a rotor at 4° C. overnight. The cell lysate was then incubated with M2 FLAG-affinity Gel agarose beads (Sigma) on a rotor at 4° C. for 3 h. The gel beads were washed four times with IP buffer, resuspended in 2× Laemmli Sample Buffer, separated by SDS-PAGE and analyzed by immunoblotting with specified antibodies.

TRIM13 [4] = assay: In vivo oligomerization assay of TRIM13-flag (non-reducing SDS-PAGE); format: cell-based, human; conditions: HEK293T TRIM13-flag, tannic acid 30 μM 24 h, HCQ 10 μM 24 h; FIGS. 4H, 9L
Protocol: FIG. 4H illustrates the in vivo oligomerization assay results of TRIM13-flag in HEK293T cells treated with HCQ (10 μM, 24 h), tannic acid (30 μM, 24 h), or both,
FIG. 5L illustrates the In vivo oligomerization assay results of TRIM13-flag in HEK293T cells treated with MG132 (2 μM, 24 h) and with or without YOK1104 (2.5 μM, 4 h).
HEK293T cells were transfected with TRIM13-flag using Lipofectamine 2000 and treated with hydroxychloroquine (Sigma) for 24 h. To lyse the cells, the cells were subjected to a cycle of freezing/thawing and centrifuged at 13,000 g for 10 min after 30 min incubation on ice for supernatant collection. Protein concentration was measured using the Pierce BCA Protein Assay Kit (Thermo Fisher Scientific). Next, a non-reducing 4×LDS sample buffer was added to the sample lysate and followed by boiling at 100° C. for 10 min. The samples were loaded on a 3% stacking and 8% separating SDS-PAGE. Immunoblotting assays were performed using an anti-Flag antibody (Sigma) to visualize the oligomeric complexes of TRIM13.

- p62 oligomerization (p62): induced p62 oligomerization
Compound: Arg-Ala

- turnover of TRIM13 and its complex with p62 (TRIM13-p62 complex; HCQ 10 μM 24 h): became metabolically stabilized
- binding of p62 to TRIM13 (TRIM13-p62 complex): p62 normally bound to TRIM13
Compound: O=C(OC[C@H]1O[C@@H](OC(=O)c2cc(O)c(O)c(OC(=O)c3cc(O)c(O)c(O)c3)c2)[C@H](OC(=O)c2cc(O)c(O)c(OC(=O)c3cc(O)c(O)c(O)c3)c2)[C@@H](OC(=O)c2cc(O)c(O)c(OC(=O)c3cc(O)c(O)c(O)c3)c2)[C@@H]1OC(=O)c1cc(O)c(O)c(OC(=O)c2cc(O)c(O)c(O)c2)c1)c1cc(O)c(O)c(OC(=O)c2cc(O)c(O)c(O)c2)c1 [tannic acid]
- ER morphology (swelling), KDEL signals (HeLa cells [1]): the ER spontaneously swelled into abnormal morphology
- TRIM13 protein level (autophagic degradation) (TRIM13 [2]): stabilized
- localization of p62 puncta to calnexin signals (targeting of p62 to the ER) (HeLa cells [3]; FIGS. 2C, 2D): p62 punctate signals were delocalized from calnexin signals
- autophagic targeting of KDEL+ proteins (KDEL-LC3 co-localization) (HeLa cells [3]; FIGS. 2E, 2F): abolished
- oligomeric status of TRIM13 (TRIM13 [4]): TRIM13 lost its oligomeric status, leading to the uncontrolled formation of aggregates

- p62 oligomerization (p62): did not induce p62 oligomerization
Compound: Ala-Arg

- oligomerization and aggregation of p62 (p62): negative controls
Compound: COC(=O)CNC[C@@H](O)COc1ccc(OCc2ccccc2)c(OCc2ccccc2)c1 [YOK-G-1104, methyl (R)-(3-(3,4-bis(benzyloxy)phenoxy)-2-hydroxypropyl)glycinate]

- oligomerization and aggregation of p62 (p62): negative controls
Compound: O=Cc1ccc(OCc2ccccc2)c(OCc2ccccc2)c1 [compound 1101, 3,4-bis(benzyloxy)benzaldehyde]
